US12564582B2 (Prilenia Neurotherapeutics Ltd., priority 2016, dated 2026)
Like-named read-outs stand apart in the source and are kept apart here.

How the values were obtained:
[1] = test system: patients with Huntington's disease; conditions: 45 mg b.i.d, pooled MermaiHD, HART and Pride-HD, BL dystonia ≥4
[2] = test system: patients with Huntington's disease; conditions: 45 mg bid

Compound: CCCN1CCC(c2cccc(S(C)(=O)=O)c2)CC1 [pridopidine, 4-[3-(methylsulfonyl)phenyl]-1-propyl-piperidine]
- UHDRS Dystonia score compared to placebo ([1]; Week 26): statistically significant improvement
- UHDRS Dystonia score compared to placebo ([1]; Week 52): trend toward this improvement was maintained
- Responders, UHDRS TMS dystonia (improved or no change) ([2]; BL dystonia score ≥4, completed 52 weeks, FIG. 16a, placebo 60.0%): 77.8%
- Responders, UHDRS TMS dystonia (improved, change≥1) ([2]; BL dystonia score ≥4, completed 52 weeks, FIG. 16b, placebo […]): 66.7%
- Responders, UHDRS-Limb Dystonia item (improved, change≥1) ([2]; BL dystonia score ≥4, completed 52 weeks, placebo […]): 77.2%
- Responders, chorea+dystonia items ([2]; placebo 66.7%): 77.8%
